US20050037402A1, “Device and process for direct quantitative in vitro determination of a substance that is contained in a sample” (priority 2003, published 2005)

Tests used:
[1] = Photophysical characterization of dye-antibody complexes (spectral shifts, fluorescence quantum yields); type: physicochemical; settings: for Absorption Maximum (nm) / Fluorescence Maximum (nm) / Fluorescence Quantum Yield (%): 1 μmol/l dye, 2.4 μmol/l antibody in PBS; for Absorption Maximum (nm) / Fluorescence Maximum (nm): 2 hours at room temperature; for Fluorescence Quantum Yield (%): relative to indocyanine green
Procedure: Dye-antibody complexes based on antibodies with binding to the indotricarbocyanine dye trisodium-3,3-dimethyl-2-{4-methyl-7-[3,3-dimethyl-5-sulfonato-1-(2-sulfonatoethyl)-3H-indolium-2-yl]hepta-2,4,6-trien-1-ylidene}-1-(2-sulfonatoethyl)-2,3-dihydro-1H-indole-5-sulfonate, inner salt, were examined (see Example 1). Solutions of the concentration of 1 μmol/l of the above-mentioned dye and 2.4 μmol/l of the respective antibody in PBS were produced and incubated for 2 hours at room temperature. The absorption maxima were determined with a spectral photometer (Perkin-Elmer, Lambda2). The fluorescence maxima and fluorescence quantum yields were determined with a SPEX fluorolog (wavelength-dependent sensitivity calibrated by lamp and detector) relative to indocyanine green (Q=0.13 in DMSO, J Chem Eng Data 1977, 22, 379, Bioconjugate Chem 2001, 12, 44). From the absorption and fluorescence maxima, the spectral shifts were calculated relative to the maxima of a solution of the above-mentioned dye without antibodies in PBS (1 μmol/l) (absorption max. 754 nm, fluorescence max. 783 nm, fluorescence quantum yield 10%).

[2] = in DMSO; cited from earlier work
[3] = bound by 12-mer peptides; cited from earlier work
[4] = Inhibition-ELISA for binding of the unconjugated dye by selected HuCAL GOLD Fab fragments
Procedure: The purified and concentrated phagemids of the HuCAL GOLD antibody library were used in a standard selection process. As antigens, BSA- or transferrin-coupled ZK203468 were used alternately. The antigens were taken up in PBS and applied at concentrations of 50 μg/ml on Maxisorp™ microtiter plates F96 (Nunc). The maxisorp plates were incubated overnight at 4° C. (“coating”). After the maxisorp plates were blocked with 5% milk powder in PBS, about 2E+13 HuCAL GOLD phages were added to the antigen-loaded, blocked-off spots and incubated there overnight or for two hours at room temperature. After several washing steps, which became more stringent with progressive selection rounds, bonded phages were eluted with 20 mmol of DTT or 100 μmol of unconjugated ZK203468. Altogether, three successive selection rounds were carried out, whereby the phage amplification was carried out between the selection rounds, as described above.
Several thousand clones were isolated after the selection and sub-cloning and tested by means of ELISA in 384-well format for specific detection of the antigens ZK203468-BSA and—transferrin used in panning. Clones identified in this connection were studied in an inhibition-ELISA for efficient binding of the unconjugated dye.

[5] = dye without antibodies in PBS (1 μmol/l)
[6] = relative to the dye without antibodies in PBS (1 μmol/l)

CC(C=CC=C1N(CCS(=O)(=O)[O-])c2ccc(S(=O)(=O)[O-])cc2C1(C)C)=CC=CC1=[N+](CCS(=O)(=O)[O-])c2ccc(S(=O)(=O)[O-])cc2C1(C)C.[Na+].[Na+].[Na+] [ZK203468, Trisodium-3,3-dimethyl-2-{4-methyl-7-[3,3-dimethyl-5-sulfonato-1-(2-sulfonatoethyl)-3H-indolium-2-yl]hepta-2,4,6-trien-1-ylidene}-1-(2-sulfonatoethyl)-2,3-dihydro-1H-indole-5-sulfonate, Inner Salt]
Absorption Maximum (nm) [1]: 754 nm | Fluorescence Maximum (nm) [1]: 783 nm | absorption max. [1, 5]: 754 nm | fluorescence max. [1, 5]: 783 nm | fluorescence quantum yield [1, 5]: 10% | Fluorescence Quantum Yield (%) [1]: 10.0%

CC1(C)C(/C=C/C=C/C=C/C=C2\N(CCCCS(=O)(=O)O)c3ccc4ccccc4c3C2(C)C)=[N+](CCCCS(=O)(=O)[O-])c2ccc3ccccc3c21 [indocyanine green]
fluorescence quantum yield Q [2]: 0.13

Texas Red
red shift of the absorption [3]: 2.8 nm | red shift of the fluorescence [3]: 1.4 nm

B1: MOR02965: HuCAL GOLD Fab fragment binding dye ZK203468; protein SEQ-ID NO: 5 (VH-CH) and 6 (VL-CL) (antibody)
heavy: QVQLQQSGPGLVKPSQTLSLTCAISGDSVSSNSAAWSWIRQSPGRGLEWLGRIYYRSKWYNDYAVSVKSRITINPDTSKNQFSLQLNSVTPEDTAVYYCARTSFYQKLFFIAFDHWGQGTLVTVSSASTKGPSVFPLAPSSKSTSGGTAALGCLVKDYFPEPVTVSWNSGALTSGVHTFPAVLQSSGLYSLSSVVTVPSSSLGTQTYICNVNHKPSNTKVDKKVEPKSEFEQKLISEEDLNGAPWSHPQFEK
light: DIALTQPASVSGSPGQSITISCTGTSSDGGAYHYVSWYQQHPGKAPKLMIYGVIYRPSGVSNRFSGSKSGNTASLTISGLQAEDEADYYCAAWDFRKRLNVFGGGTKLTVLGQPKAAPSVTLFPPSSEELQANKATLVCLISDFYPGAVTVAWKADSSPVKAGVETTTPSKQSNNKYAASSYLSLTPEQWKSHRSYSCQVTHEGSTVEKTVAPTEA
modifications: Fab fragment of variable heavy chain; Fab fragment of variable light chain
binding to the non-conjugated dye ZK203468 [4]: bind efficiently | Absorption Maximum (nm) [1]: 799 nm | Fluorescence Maximum (nm) [1]: 815 nm | Fluorescence Quantum Yield (%) [1]: 13.0% | Absorption Shift (nm) [1, 6]: 45 nm | Fluorescence Shift (nm) [1, 6]: 32 nm
